Data reported in patent US9440951B2, “Quinolone compound” (priority 2011, dated 2016).
Converted amounts (≈) assume the structure as drawn. Like-named read-outs stand apart in the source and are kept apart here.

Tests used:
[1] = tested on: C. difficile; assay: In vitro antibacterial activity: MIC by broth microdilution; type: cell-based, Clostridium difficile; settings: Clostridioides difficile, anaerobic, tested range 0.008 to 8 μg/ml
Method: MICs (minimum inhibitory concentrations) were determined by the broth microdilution technique with 96-well microdilution plates. […] The plates were filled with 100 μl of reinforced clostridial medium (Oxoid; Unipath Ltd., Basingstoke, United Kingdom) per well containing the final antibiotic concentrations. The plates were thawed and preincubated for 3 hours in an anaerobic chamber (Thermal, USA) containing an atmosphere of 80% N2, 15% CO2, and 5% H2. The bacterial inocula were prepared by suspending growth from 48 hours cultures in reinforced clostridial medium. The final inoculum was approximately 1.0×10^5-6 CFU/well. The plates were incubated for 48 hours at 37° C. in the anaerobic chamber. The MIC was defined as the lowest antibiotic concentration that inhibited visible growth. Ciprofloxacin, vancomycin and metronidazole were used as a positive control.

[2] = strain C. difficile ATCC43255, 48 hours at 37° C., read-out: MIC against C. difficile ATCC43255
[3] = strain C. difficile ATCC70092, 48 hours at 37° C., read-out: MIC against C. difficile ATCC70092
[4] = strain C. difficile ATCC7000057, 48 hours at 37° C., read-out: MIC against C. difficile ATCC7000057
[5] = strain C. difficile IQCC23903, 48 hours at 37° C., read-out: MIC against C. difficile IQCC23903

Row | MIC [1, 2] [µg/mL] | MIC [1, 3] [µg/mL] | MIC [1, 4] [µg/mL] | MIC [1, 5] [µg/mL] | melting point [°C] | SMILES
1 | 0.032 to 0.125 (≈ 0.0789 to 0.308 µM) | 0.032 to 0.125 (≈ 0.0789 to 0.308 µM) | 0.032 to 0.125 (≈ 0.0789 to 0.308 µM) | 0.063 to 0.25 (≈ 0.155 to 0.617 µM) | > 300 | Cc1c(-c2cnc3[nH]c(=O)ccc3c2)c(F)cc2c(=O)c(C(=O)O)cn(C3CC3)c12 [Compound 1-2]
2 | 0.008 to 0.032 (≈ 0.0194 to 0.0777 µM) | 0.008 to 0.032 (≈ 0.0194 to 0.0777 µM) | 0.016 to 0.032 (≈ 0.0389 to 0.0777 µM) | 0.008 to 0.063 (≈ 0.0194 to 0.153 µM) | 307 to 311 | Cc1c(-c2cc(Cl)c3nccn3c2)c(F)cc2c(=O)c(C(=O)O)cn(C3CC3)c12 [Compound 3-11]
3 | 0.016 to 0.063 (≈ 0.0423 to 0.167 µM) | 0.008 to 0.063 (≈ 0.0211 to 0.167 µM) | 0.016 to 0.063 (≈ 0.0423 to 0.167 µM) | 0.032 to 0.063 (≈ 0.0846 to 0.167 µM) |  | Cc1c(-c2cnc(N)c(C#N)c2)c(F)cc2c(=O)c(C(=O)O)cn(C3CC3)c12 [Compound 2-18]
